The values below come from article PMC11585590 (Nature Communications, 2024).

One series deals with endogenous WDR5 (Homo sapiens, UniProt P61964). Put plainly: Endogenous WDR5 degradation assay using ProteinSimple's Jess, 24 h. It counts as cell-based. The note with it: for Dmax: MV4-11, read-out: Dmax of endogenous WDR5 degradation, parental MV4-11 cells, 24 h; for DC50: read-out: EC50 of endogenous WDR5 degradation.
Series [1] deals with T1, HiBiT-tagged WDR5 (Homo sapiens, UniProt P61964+Q9Y4B6). Put plainly: Exogenous HiBiT WDR5 degradation assay, 24 h. It counts as cell-based. The note with it: for Dmax: MV4-11, read-out: Dmax of exogenous HiBiT-WDR5 degradation, MV4-11 cells expressing HiBiT-tagged WDR5, 24 h; for Dmax of exogenous HiBiT-WDR5 degradation: MV4-11 cells expressing HiBiT-tagged WDR5, 24 h. (The HiBiT peptide binds its large partner to form an active luciferase.)

The target of series [2] is DCAF1-PROTAC-WDR5 ternary complex (Homo sapiens, UniProt P61964+Q9Y4B6). Put plainly: SPR ternary complex formation: PROTAC with 0.25 µM WDR5 on immobilized DCAF1. It counts as binding. The note with it: WDR5 0.25 µM.
A further series has as its target DCAF1 (Homo sapiens, UniProt Q9Y4B6). Put plainly: SPR ternary complex format: PROTAC alone on immobilized DCAF1. The note with it: for Rmax: PROTAC alone, absence of WDR5; for koff: read-out: koff (1/s); for kon: read-out: kon (1/Ms). It counts as binding.
In series [3] the target is WDR5 (Homo sapiens, UniProt P61964). Nature of the series: Western blot of WDR5 in MV4-11 cells, 1.5 μM PROTAC, 24 h. It counts as cell-based. (In western blotting, separated proteins are transferred to a membrane and probed.)
For series [4], the target named is T1, HiBiT-tagged WDR5. Put plainly: Proteasome dependence: HiBiT-WDR5 level after 5 h with PROTAC 4 and/or MG132. It counts as cell-based. The note with it: co-treatment with PROTAC 4 at 1.5 µM.
Series [5] relates to MV4-11 cells expressing HiBiT WDR5. Put plainly: ATPlite viability of MV4-11 cells expressing HiBiT WDR5, 24 h. It counts as cell-based. The note with it: 2 nM to 10 μM. (In ATP-based viability assays light output follows the ATP content of the culture.)
In series [6] the test system is WDR5. The note with it: highest concentration of 7.5 µM, no hook effect; cited from earlier work.

“Also recorded” adds a separate entry of the source. Peptide text beside a SMILES is read from it. * marks the point of attachment. Cbz = O=C(OCc1ccccc1)*

T1 sequence (Q9Y4B6 whole entry, one chain of several): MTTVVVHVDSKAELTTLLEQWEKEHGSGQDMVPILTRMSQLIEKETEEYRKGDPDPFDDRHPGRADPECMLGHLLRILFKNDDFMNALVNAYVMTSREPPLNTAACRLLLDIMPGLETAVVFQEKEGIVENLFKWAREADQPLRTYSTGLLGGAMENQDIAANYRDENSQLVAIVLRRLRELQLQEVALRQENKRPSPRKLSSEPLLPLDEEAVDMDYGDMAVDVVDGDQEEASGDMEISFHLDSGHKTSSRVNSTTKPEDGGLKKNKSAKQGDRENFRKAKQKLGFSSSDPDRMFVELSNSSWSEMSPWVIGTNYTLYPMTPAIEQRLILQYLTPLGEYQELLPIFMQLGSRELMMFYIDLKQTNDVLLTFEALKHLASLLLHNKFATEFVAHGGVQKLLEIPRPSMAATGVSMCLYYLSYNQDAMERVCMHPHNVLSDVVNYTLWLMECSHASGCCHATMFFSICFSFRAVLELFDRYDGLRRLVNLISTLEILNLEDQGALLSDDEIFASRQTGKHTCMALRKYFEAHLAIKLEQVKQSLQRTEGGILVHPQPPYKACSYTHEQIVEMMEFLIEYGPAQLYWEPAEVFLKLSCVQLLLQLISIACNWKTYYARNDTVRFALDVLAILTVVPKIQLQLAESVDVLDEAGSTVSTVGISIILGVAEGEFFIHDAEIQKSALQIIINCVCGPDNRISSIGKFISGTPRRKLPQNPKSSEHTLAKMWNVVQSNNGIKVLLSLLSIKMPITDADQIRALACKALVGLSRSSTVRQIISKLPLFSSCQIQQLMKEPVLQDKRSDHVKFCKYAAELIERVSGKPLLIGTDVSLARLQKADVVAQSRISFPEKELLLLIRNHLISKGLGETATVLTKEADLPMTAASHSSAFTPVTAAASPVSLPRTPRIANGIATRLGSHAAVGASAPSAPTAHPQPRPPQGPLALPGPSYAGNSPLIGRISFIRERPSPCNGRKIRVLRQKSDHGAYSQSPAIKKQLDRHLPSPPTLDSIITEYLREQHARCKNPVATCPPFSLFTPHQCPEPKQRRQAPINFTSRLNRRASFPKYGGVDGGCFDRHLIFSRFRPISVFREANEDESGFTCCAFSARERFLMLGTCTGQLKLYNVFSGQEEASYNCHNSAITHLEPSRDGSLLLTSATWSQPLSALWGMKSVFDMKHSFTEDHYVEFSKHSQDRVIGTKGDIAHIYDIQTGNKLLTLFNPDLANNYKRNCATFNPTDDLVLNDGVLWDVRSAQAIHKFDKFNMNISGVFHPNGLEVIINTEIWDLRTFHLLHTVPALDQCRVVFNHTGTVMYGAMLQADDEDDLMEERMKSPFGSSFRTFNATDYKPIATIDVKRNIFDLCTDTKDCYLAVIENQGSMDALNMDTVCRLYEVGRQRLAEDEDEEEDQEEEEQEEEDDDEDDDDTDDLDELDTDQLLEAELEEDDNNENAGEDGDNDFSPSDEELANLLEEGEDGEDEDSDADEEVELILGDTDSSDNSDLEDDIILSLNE
Sequence of DCAF1-PROTAC-WDR5 ternary complex (Q9Y4B6 1077-1390, one chain of several): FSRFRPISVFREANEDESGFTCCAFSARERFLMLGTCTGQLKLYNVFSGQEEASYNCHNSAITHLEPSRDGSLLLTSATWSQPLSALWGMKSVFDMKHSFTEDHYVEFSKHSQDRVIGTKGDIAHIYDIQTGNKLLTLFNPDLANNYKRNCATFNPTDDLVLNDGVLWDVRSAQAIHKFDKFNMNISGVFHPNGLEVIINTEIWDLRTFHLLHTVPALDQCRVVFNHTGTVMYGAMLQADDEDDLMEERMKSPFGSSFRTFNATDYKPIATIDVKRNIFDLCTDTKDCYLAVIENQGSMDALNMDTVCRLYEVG
Sequence of DCAF1 (Q9Y4B6 1077-1390): as the sequence (Q9Y4B6 1077-1390, one chain of several) above

Regarding `C[C@@H]1CN(c2ccc(-c3cc(C(=O)NCCCNC(=O)/C=C/c4[nH]cc(C(=O)N[C@@H](CC(N)=O)c5ccc(F)c(Cl)c5)c4-c4ccc(Cl)cc4F)ccc3F)cc2NC(=O)c2c[nH]c(=O)cc2C(F)(F)F)C[C@H](C)N1C` [PROTAC 5], at endogenous WDR5 (MV4-11 cells), the “degradation of endogenous WDR5 in cells” value was “did not degrade”. For the same molecule, the “degradation of exogenous WDR5 in cells” value at HiBiT-tagged WDR5 [1] (MV4-11 cells) is given as “did not degrade”.
One may read the Dmax as the greatest extent of degradation seen. As usually defined, the Kd is the concentration at which binding is half-saturated. A higher Kd goes with weaker binding. `C[C@@H]1CN(c2ccc(-c3cc(C(=O)NCCOCCOCCOCCOCCNC(=O)/C=C/c4[nH]cc(C(=O)N[C@@H](CC(N)=O)c5ccc(F)c(Cl)c5)c4-c4ccc(Cl)cc4F)ccc3F)cc2NC(=O)c2c[nH]c(=O)cc2C(F)(F)F)C[C@H](C)N1C` [PROTAC 1] yielded an Rmax in series [2] of 390. The Dmax on endogenous WDR5 was 23.5 ± 11.4%. For the same molecule, on endogenous WDR5 (parental MV4-11 cells, 24 h), the DC50 turned out to be 186 ± 89 nM. At DCAF1, binding was characterised by a dissociation constant (Kd) of 46 ± 0.4 nM, the Rmax came out at 101, the koff came out at 0.011 s⁻¹ and the kon stood at 249000 M⁻¹ s⁻¹. For the same molecule, at HiBiT-tagged WDR5 [1], the Dmax worked out at 31.6 ± 5.5% and the “Dmax of exogenous HiBiT-WDR5 degradation” value is recorded as 32%. Further, the “WDR5 protein level by Western blot” value on WDR5 [3] is “moderate WDR5 degradation”.
Turning to `CC(C)C[C@@H](C=O)NC(=O)[C@H](CC(C)C)NC(=O)[C@H](CC(C)C)NC(=O)OCc1ccccc1` [MG132] (Cbz-Leu-Leu-Leu-aldehyde), the “HiBiT-WDR5 level reached on rescue by MG132” value at HiBiT-tagged WDR5 [4] is reported as “approximately 100%”.
With `Cc1ncsc1-c1ccc([C@H](C)NC(=O)[C@@H]2C[C@@H](O)CN2C(=O)[C@@H](NC(=O)CNC(=O)c2ccc(F)c(-c3ccc(N4C[C@@H](C)N(C)[C@@H](C)C4)c(NC(=O)c4c[nH]c(=O)cc4C(F)(F)F)c3)c2)C(C)(C)C)cc1` [MS67, reference compound], in series [5], the “toxicity / viability after 24 h (ATPlite)” value is listed as “displayed some toxicity”. The “Dmax of WDR5 degradation” value in the series on WDR5 [6] is ~ 70%. Also, the “Dmax of exogenous HiBiT-WDR5 degradation” value on HiBiT-tagged WDR5 [1] worked out at 78.7%. Moreover, the “WDR5 protein level by Western blot” value on WDR5 [3] is given as “significantly decreased; also recorded: comparable levels of WDR5 degradation”.
Take `C[C@@H]1CN(c2ccc(-c3cc(C(=O)NCCOCCOCCOCCOCCOCCOCCOCCOCCOCCNC(=O)/C=C/c4[nH]cc(C(=O)N[C@@H](CC(N)=O)c5ccc(F)c(Cl)c5)c4-c4ccc(Cl)cc4F)ccc3F)cc2NC(=O)c2c[nH]c(=O)cc2C(F)(F)F)C[C@H](C)N1C` [PROTAC 4]: in series [2], the Rmax was 818. Also, the “toxicity / viability after 24 h (ATPlite)” value in series [5] is given as “did not show a significant toxicity”. In addition, at endogenous WDR5, the Dmax was found to be 49.1%. Besides, on endogenous WDR5 (parental MV4-11 cells, 24 h), the “Dmax of endogenous WDR5 degradation” value is on record as 49 ± 1.9% and the DC50 was 40 ± 24 nM. At DCAF1, the affinity, expressed as Kd, was 59 ± 0.9 nM; the Rmax came to 102; the koff worked out at 0.014 s⁻¹; the kon turned out to be 239000 M⁻¹ s⁻¹. For the same molecule, the Dmax on HiBiT-tagged WDR5 [1] came out at 73.8 ± 2.9%. The “WDR5 protein level by Western blot” value on WDR5 [3] is “significantly decreased; also recorded: comparable levels of WDR5 degradation”.
In series [2], `C[C@@H]1CN(c2ccc(-c3cc(C(=O)NCCOCCOCCOCCOCCOCCOCCNC(=O)/C=C/c4[nH]cc(C(=O)N[C@@H](CC(N)=O)c5ccc(F)c(Cl)c5)c4-c4ccc(Cl)cc4F)ccc3F)cc2NC(=O)c2ccc(F)cc2C(F)(F)F)C[C@H](C)N1C` [PROTAC 3] had an Rmax of 685. The Dmax at endogenous WDR5 amounted to 33.4 ± 6.8%. The DC50 on endogenous WDR5 (parental MV4-11 cells, 24 h) was found to be 93 ± 37 nM. At DCAF1, binding was put at a Kd of 48 ± 2.8 nM, the Rmax worked out at 42, the koff is 0.003 s⁻¹ and the kon was 69600 M⁻¹ s⁻¹. The Dmax on HiBiT-tagged WDR5 [1] was found to be 41.9 ± 4.5%. The “WDR5 protein level by Western blot” value at WDR5 [3] is reported as “moderate WDR5 degradation”.
In turn, `C[C@@H]1CN(c2ccc(-c3cc(C(=O)NCCOCCOCCOCCOCCNC(=O)Cn4cc(-c5[nH]cc(C(=O)N[C@@H](CC(N)=O)c6ccc(F)c(Cl)c6)c5-c5ccc(Cl)cc5F)cn4)ccc3F)cc2NC(=O)c2c[nH]c(=O)cc2C(F)(F)F)C[C@H](C)N1C` [PROTAC 2] had an Rmax in series [2] of 621. In addition, the Dmax on endogenous WDR5 was determined as 21.9 ± 11.1%. On endogenous WDR5 (parental MV4-11 cells, 24 h), the DC50 was determined as 135 ± 6 nM. For the same molecule, on DCAF1, the Kd came to 38 ± 0.6 nM, the Rmax turned out to be 106 and the koff was determined as 0.008 s⁻¹. For the same molecule, at HiBiT-tagged WDR5 [1], the Dmax was 41.2 ± 2.5%. Moreover, the “WDR5 protein level by Western blot” value on WDR5 [3] is given as “moderate WDR5 degradation”.
